Data: ChEMBL document CHEMBL4270632, “CD73 inhibition by purine cytotoxic nucleoside analogue-based diphosphonates” (Eur J Med Chem, 2018)
pIC50: −log10 of the molar value. Activity calls are given as the source filed them. No cut-off for these calls is given here.

Assays:
5'-nucleotidase [1] = molecular target: T1, 5'-nucleotidase (Homo sapiens, UniProt P21589); assay: Inhibition of recombinant CD73 (27 to 549 residues) (unknown origin) expressed in baculovirus infected Sf9 insect cells assessed as reduction in conversion of AMP to adenosine incubated for 1 min followed by AMP addition measured after 3.5 mins by malachite green reagent based assay
T1 sequence (P21589 whole entry, the tested form may be a part): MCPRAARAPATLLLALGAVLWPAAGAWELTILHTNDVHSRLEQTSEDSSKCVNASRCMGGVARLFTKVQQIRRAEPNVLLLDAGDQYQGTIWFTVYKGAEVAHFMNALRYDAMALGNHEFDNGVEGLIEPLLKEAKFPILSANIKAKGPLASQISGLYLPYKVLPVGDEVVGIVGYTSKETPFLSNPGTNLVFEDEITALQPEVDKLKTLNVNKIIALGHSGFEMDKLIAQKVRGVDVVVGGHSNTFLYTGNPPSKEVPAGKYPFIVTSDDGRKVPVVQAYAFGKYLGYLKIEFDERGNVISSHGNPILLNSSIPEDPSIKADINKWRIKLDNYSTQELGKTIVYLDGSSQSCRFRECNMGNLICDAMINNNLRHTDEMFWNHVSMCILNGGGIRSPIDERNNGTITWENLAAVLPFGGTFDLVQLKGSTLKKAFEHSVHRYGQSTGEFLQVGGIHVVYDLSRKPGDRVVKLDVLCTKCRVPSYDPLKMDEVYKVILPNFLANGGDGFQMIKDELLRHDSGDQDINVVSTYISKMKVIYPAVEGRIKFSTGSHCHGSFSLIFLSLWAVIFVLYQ

5'-nucleotidase [2] = molecular target: T1, 5'-nucleotidase; assay: Inhibition of CD73 in human MDA-MB-231 cells assessed as reduction in conversion of AMP to adenosine incubated for 30 mins by malachite green reagent based assay; type: cell-based
5'-nucleotidase [3] = molecular target: T1, 5'-nucleotidase; assay: Inhibition of CD73 in human NCI-H292 cells assessed as reduction in conversion of AMP to adenosine incubated for 30 mins by malachite green reagent based assay; type: cell-based
CCRF-CEM = assay: Cytotoxicity against human CCRF-CEM cells assessed as decrease in cell viability after 72 hrs by MTT assay; type: cell-based
Granta = assay: Cytotoxicity against human Granta cells assessed as decrease in cell viability after 72 hrs by MTT assay; type: cell-based
RL = assay: Cytotoxicity against human RL cells assessed as decrease in cell viability after 72 hrs by MTT assay; type: cell-based
HL-60 = assay: Cytotoxicity against human HL60 cells assessed as decrease in cell viability after 72 hrs by MTT assay; type: cell-based; conditions: HL-60, 72 h

Row | SMILES | inhibition (5'-nucleotidase [1]) | pIC50 (5'-nucleotidase [2]) | pIC50 (5'-nucleotidase [3]) | pIC50 (CCRF-CEM) | pIC50 (Granta) | pIC50 (RL) | pIC50 (HL-60) | pIC50 (5'-nucleotidase [1])
1 | Nc1nc(Cl)nc2c1ncn2[C@@H]1O[C@H](CO)[C@@H](O)[C@@H]1F [CLOFARABINE] | – | – | – | 7.36 | 7.77 | 6.42 | 7.40 | –
2 | Nc1ncnc2c1ncn2[C@@H]1O[C@H](COP(=O)(O)CP(=O)(O)O)[C@@H](O)[C@H]1O [PHOSPHOMETHYLPHOSPHONIC ACID ADENOSYL ESTER] | – | 4.67 | 4.63 | – | – | – | – | 5.42
3 | Nc1nc(F)nc2c1ncn2[C@@H]1O[C@H](COP(=O)(O)CP(=O)(O)O)[C@@H](O)[C@@H]1O | Active | 3.95 | 5.66 | – | – | – | – | –

The next lines start with results.

Row | inhibition (5'-nucleotidase [1]) | pIC50 (5'-nucleotidase [2]) | pIC50 (5'-nucleotidase [3]) | SMILES | pIC50 (CCRF-CEM) | pIC50 (Granta) | pIC50 (RL) | pIC50 (HL-60) | pIC50 (5'-nucleotidase [1])
4 | Active | 3.83 | 5.70 | Nc1nc(Cl)nc2c1ncn2[C@H]1C[C@H](O)[C@@H](COP(=O)(O)CP(=O)(O)O)O1 | – | – | – | – | –
5 | – | 5.49 | 6.62 | Nc1nc(Cl)nc2c1ncn2[C@@H]1O[C@H](COP(=O)(O)CP(=O)(O)O)[C@@H](O)[C@@H]1F | 4.30 | 4.40 | < 3.52 | 4.31 | 6.74
